# Values quoted from earlier work as cited in US20060024247A1, “Oral care formulations comprising highly bioavailable Coenzyme Q-10 cyclodextrin complex” (BioActives, LLC, priority 2004, published 2006).
compound,measurement,value
"COC1=C(OC)C(=O)C(C/C=C(\C)CC/C=C(\C)CC/C=C(\C)CC/C=C(\C)CC/C=C(\C)CC/C=C(\C)CC/C=C(\C)CC/C=C(\C)CC/C=C(\C)CCC=C(C)C)=C(C)C1=O [CoQ-10, Coenzyme Q-10]",bioavailability,very poor
same,solubility in water,practically insoluble in water
